Measured values taken from PubChem BioAssay AID1264 (University of Pittsburgh Molecular Library Screening Center, 2008).
“And” between values parts separate entries of the source, which are not always exact repeats. Identical values can stand only once. The source made the active and inactive calls.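 How the source made its calls: active means every replicate of triplicate confirmation testing shows 50% or greater inhibition; inconclusive means one or more replicate tests show below 50% inhibition; inactive means every triplicate test shows below 50% inhibition.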

target: Serine/threonine-protein kinase PLK1 (Homo sapiens) (UniProt P53350); assay: PLK1 kinase activity inhibitors, confirmation, biochemical, analogue series, repeat of primary screen (AID 1264); settings: recombinant PLK1 kinase, TR-FRET phosphopeptide binding; at 10 µM; active compounds read high
Sequence (P53350 whole entry, looked up): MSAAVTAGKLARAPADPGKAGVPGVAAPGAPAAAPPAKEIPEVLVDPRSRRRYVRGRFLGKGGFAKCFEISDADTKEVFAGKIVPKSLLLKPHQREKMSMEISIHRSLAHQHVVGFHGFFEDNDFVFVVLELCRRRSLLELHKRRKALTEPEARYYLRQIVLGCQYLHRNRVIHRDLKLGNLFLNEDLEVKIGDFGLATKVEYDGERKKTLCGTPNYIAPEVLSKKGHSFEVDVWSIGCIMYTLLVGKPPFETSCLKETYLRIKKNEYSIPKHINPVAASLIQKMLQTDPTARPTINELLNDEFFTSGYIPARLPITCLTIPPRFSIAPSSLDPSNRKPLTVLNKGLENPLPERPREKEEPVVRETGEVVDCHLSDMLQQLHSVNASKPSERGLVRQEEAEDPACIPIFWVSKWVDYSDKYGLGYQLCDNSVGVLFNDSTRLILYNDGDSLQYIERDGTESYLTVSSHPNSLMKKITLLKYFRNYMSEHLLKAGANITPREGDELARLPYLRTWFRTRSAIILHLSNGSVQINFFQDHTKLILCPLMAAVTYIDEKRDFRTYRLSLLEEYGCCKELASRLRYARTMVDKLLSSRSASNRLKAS

Row | SMILES | inhibition
1 | CC(C)(C)c1ccc(C2=CC(c3ccccc3F)n3ncnc3N2)cc1 (stereo unspecified) | -3.46% (inactive)
2 | C1=C(c2ccccc2)Nc2ncnn2C1 | 12.8% (inactive)
3 | CCOC(=O)c1ccc(NC(=O)c2c(N)n(Cc3ccccc3)c(=O)[nH]c2=O)cc1 | -23.9% (inactive)
4 | CCOC(=O)c1ccc(NC(=O)c2c(NCc3ccccc3)[nH]c(=O)[nH]c2=O)cc1 | -44% (inactive)
5 | CC1=CC(c2ccccc2)n2nc(N)nc2N1 (stereo unspecified) | -13.7% (inactive)
6 | CCC1=CC(c2ccccc2)n2ncnc2N1 (stereo unspecified) | 27.4% (inactive)
7 | Cc1cc(=O)n2[nH]cnc2n1 | 19.1% (inactive)
8 | CCC(=O)NCCCc1nc(-c2ccccc2)no1 | -3.38% (inactive)
9 | CCOc1ccc(NC(=O)c2c(O)[nH]c(=O)[nH]c2=O)cc1 | 4.03% (inactive)
10 | CC(C)(C)c1ccc(C2=CC(c3ccccc3)n3ncnc3N2)cc1 (stereo unspecified) | -7.88% (inactive)
11 | CCOC(=O)c1ccccc1NC(=O)c1c(O)[nH]c(=O)[nH]c1=O | -7.12% (inactive)
12 | CCOC(=O)c1cccc(NC(=O)c2c(N)n(C)c(=O)[nH]c2=O)c1 | -1.45% (inactive)
13 | Cc1ccc(C2C=C(c3ccccc3)Nc3ncnn32)cc1 (stereo unspecified) | -8.59% (inactive)
14 | CC(C)C(=O)NCCc1nc(-c2ccccc2Cl)no1 | -5.05% (inactive)
15 | Cc1ccc(NC(=O)c2ccc(F)cc2F)cc1 | 0.531% (inactive)
16 | FC(F)(F)c1ccccc1C1=CC(c2ccccc2)n2ncnc2N1 (stereo unspecified) | -2.08% (inactive)
17 | CCCC(=O)NC(C)c1nc(-c2ccc(C)cc2)no1 (stereo unspecified) | -6.32% (inactive)
18 | CCOC(=O)c1ccc(NC(=O)c2c(N)n(C)c(=O)n(C)c2=O)cc1 | -20.8% (inactive)
19 | CCOC(=O)c1ccc(NC(=O)c2c(N)n(C)c(=O)[nH]c2=O)cc1 | -19.2% (inactive)
20 | O=C(Nc1ccccc1)c1ccc(F)cc1F | 24.9% (inactive)
21 | O=C(Nc1ccccc1)c1c(O)[nH]c(=O)[nH]c1=O | 0.179% (inactive)

Row | SMILES | inhibition
22 | CCOC(=O)c1cccc(NC(=O)c2ccc(F)cc2F)c1 | -1.61% (inactive)
23 | CC(=O)NCCc1nc(-c2ccc(Cl)cc2)no1 | 0.952% (inactive)
24 | CC1=CC(c2ccccc2)n2ncnc2N1 (stereo unspecified) | 26% (inactive)
25 | Cc1ccc(C2=CC(c3ccccc3)n3ncnc3N2)c(C)c1 (stereo unspecified) | -6.91% (inactive)
26 | CCOC(=O)c1ccc(NS(=O)(=O)c2c(N)n(C)c(=O)n(C)c2=O)cc1 | -7.36% (inactive)
27 | Cn1c(N)c(C(=O)Nc2ccccc2)c(=O)[nH]c1=O | 8.78% (inactive)
28 | CC(C)C(=O)NCCc1nc(-c2ccc(Cl)cc2)no1 | -14.7% (inactive)
29 | O=C(NCCc1nc(-c2ccccc2Cl)no1)c1ccccc1 | -12.8% (inactive)
30 | COc1ccc(C2C=C(c3ccccc3)Nc3ncnn32)cc1 (stereo unspecified) | -8.01% (inactive)
31 | CCC(=O)NCCc1nc(-c2ccccc2)no1 | -12.8% (inactive)
32 | CC(C)C(=O)NCCc1nc(-c2ccccc2)no1 | -10.1% (inactive)
33 | Cn1c(N)c(S(=O)(=O)NCc2ccccc2)c(=O)n(C)c1=O | -15.5% (inactive)
34 | CCCCOC(=O)c1ccc(NC(=O)c2c(O)[nH]c(=O)[nH]c2=O)cc1 | 13.1% (inactive)
35 | Cc1cccc(N/N=C/c2c(O)[nH]c(=S)[nH]c2=O)c1 | -7.37% (inactive)
36 | CCCCOC(=O)c1ccc(NC(=O)c2ccc(F)cc2F)cc1 | -1.8% (inactive)
37 | CCOC(=O)c1ccccc1NC(=O)c1ccc(F)cc1F | -4.35% (inactive)
38 | CCOC(=O)c1cccc(NC(=O)c2c(NCc3ccccc3)[nH]c(=O)[nH]c2=O)c1 | -25.1% (inactive)
39 | Cc1cc(C)c(C2=CC(c3ccccc3)n3ncnc3N2)cc1C (stereo unspecified) | -3.17% (inactive)
40 | Cc1ccc(C2=CC(c3ccccc3)n3ncnc3N2)cc1 (stereo unspecified) | -16.9% (inactive)
41 | CCOC(=O)c1ccc(NC(=O)c2ccc(F)cc2F)cc1 | 4.42% (inactive)
42 | O=C(NCCc1nc(-c2ccccc2Cl)no1)C1CCCCC1 | -35.6% (inactive)

Row | SMILES | inhibition
43 | COc1ccc(C2C=C(C)Nc3ncnn32)cc1 (stereo unspecified) | 5.53% (inactive)
44 | C/C(=N\NC(=O)c1ccncc1)c1c(O)[nH]c(=O)[nH]c1=O | -1.95% (inactive)
45 | CCOC(=O)c1ccc(NC(=O)c2c(O)[nH]c(=O)[nH]c2=O)cc1 | -4.9% (inactive)
46 | CCOc1ccc(NC(=O)c2ccc(F)cc2F)cc1 | -2.77% (inactive)
47 | Cn1cccc1C1C=C(c2ccc(C(C)(C)C)cc2)Nc2ncnn21 (stereo unspecified) | -5.07% (inactive)
48 | CCOC(=O)c1cccc(NC(=O)c2c(O)[nH]c(=O)[nH]c2=O)c1 | -17.6% (inactive)
49 | CCOC(=O)CCCCCNC(=O)c1c(O)[nH]c(=O)[nH]c1=O | -9.36% (inactive)
50 | CCOc1ccc(NC(=O)c2c(N)n(C)c(=O)[nH]c2=O)cc1 | -9.99% (inactive)
51 | O=C(NCCc1nc(-c2ccccc2)no1)c1ccco1 | -16.1% (inactive)
52 | CCOC(=O)CCCCCNC(=O)c1ccc(F)cc1F | -1.76% (inactive)
53 | CC(C)(C)C(=O)NCCc1nc(-c2ccccc2)no1 | 0.116% (inactive)
54 | Cc1ccc(C2=CC(c3ccc(C)cc3)n3ncnc3N2)cc1 (stereo unspecified) | -1.39% (inactive)
55 | C1=C(c2ccccc2)Nc2ncnn2C1c1ccccc1 (stereo unspecified) | -5.72% (inactive) and -12.8% (inactive)
56 | CCOC(=O)c1ccccc1NC(=O)c1c(O)[nH]c(=S)[nH]c1=O | 19.1% (inactive)
57 | CCCCOC(=O)c1ccc(NC(=O)c2c(N)n(C)c(=O)[nH]c2=O)cc1 | -5.01% (inactive)
58 | CCOc1ccc(C2=CC(c3ccccc3)n3ncnc3N2)cc1 (stereo unspecified) | -6.38% (inactive)
59 | O=C(NCCc1nc(-c2ccccc2)no1)c1ccccc1 | -5.02% (inactive)
60 | CCOC(=O)c1ccccc1NC(=O)c1c(N)n(C)c(=O)[nH]c1=O | -3.12% (inactive)
61 | O=C(Nc1ccccc1)c1c(O)[nH]c(=S)[nH]c1=O | 14.3% (inactive)
